ChEMBL document CHEMBL4706474, “Tetrahydro-2-naphthyl and 2-Indanyl Triazolopyrimidines Targeting Plasmodium falciparum Dihydroorotate Dehydrogenase Display Potent and Selective Antimalarial Activity” (J Med Chem, 2016)
In brackets after ≈: the same amount, converted by molar mass.

Columns and labels:
[1] = test system: Plasmodium falciparum; experiment: Antiplasmodial activity against Plasmodium falciparum 3D7 infected in RBC assessed as reduction in parasitemia incubated for 72 hrs by SYBR green dye-based assay; type: functional, organism-based
[2] = Inhibition of N-terminal His6-tagged Plasmodium falciparum DHODH expressed in Escherichia coli BL21 using L-DHO as substrate and CoQ as co-substrate by DCIP dye based spectrophotometric assay
[3] = biological target: Dihydroorotate dehydrogenase (quinone), mitochondrial (Homo sapiens, UniProt Q02127); experiment: Inhibition of N-terminal His6-tagged human DHODH expressed in Escherichia coli BL21 using L-DHO as substrate and CoQ as co-substrate by DCIP dye based spectrophotometric assay
Dihydroorotate dehydrogenase (quinone), mitochondrial, sequence (Q02127 whole entry): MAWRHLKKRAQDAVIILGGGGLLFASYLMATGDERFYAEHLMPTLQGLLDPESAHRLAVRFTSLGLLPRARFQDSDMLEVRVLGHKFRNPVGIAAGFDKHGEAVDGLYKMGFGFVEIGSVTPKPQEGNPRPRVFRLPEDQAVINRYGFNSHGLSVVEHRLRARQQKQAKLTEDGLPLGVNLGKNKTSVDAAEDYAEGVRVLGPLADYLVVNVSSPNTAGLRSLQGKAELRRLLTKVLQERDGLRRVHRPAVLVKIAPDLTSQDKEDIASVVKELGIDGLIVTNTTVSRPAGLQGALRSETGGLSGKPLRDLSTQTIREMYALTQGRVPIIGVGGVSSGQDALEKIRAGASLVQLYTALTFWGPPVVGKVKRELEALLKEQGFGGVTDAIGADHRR

[4] = Intrinsic clearance in mouse liver microsomes at 1 uM by LC-MS analysis; type: ADME, Microsome
[5] = Intrinsic clearance in rat liver microsomes assessed per mg protein at 1 uM by LC-MS analysis; type: ADME, Microsome; conditions: microsomes, 1 µM
[6] = Intrinsic clearance in human pooled liver microsomes assessed per mg protein at 1 uM by LC-MS analysis; type: ADME, Microsome; conditions: microsomes, 1 µM
[7] = Inhibition of N-terminal His6-tagged Plasmodium vivax DHODH expressed in Escherichia coli BL21 using L-DHO as substrate and CoQ as co-substrate by DCIP dye based spectrophotometric assay
[8] = Kinetic solubility of compound in phosphate buffer at pH 6.5 measured after 30 mins by HPLC-UV based analysis; type: physicochemical; conditions: for solubility kinetic at 0.5 h: phosphate buffer, pH 6.5, read-out: Kinetic_solubility
[9] = Lipophilicity, logD of the compound at pH 7.4; type: physicochemical; conditions: buffer
[10] = test system: Plasmodium falciparum; experiment: Antiplasmodial activity against Plasmodium falciparum 3D7 infected in NSG mouse assessed as blood AUC level require to show 90% reduction in parasitemia administered orally on day 3 post-infection QD for 4 days and measured after 24 hrs post dose by LC-MS/MS analysis; type: functional, organism-based; conditions: time 4.0 day
[11] = test system: Plasmodium falciparum; experiment: Antiplasmodial activity against Plasmodium falciparum 3D7 infected in po dosed NSG mouse assessed as reduction in parasitemia administered twice daily for 4 consecutive days starting from day 3 post-infection and measured 24 hrs post last dose by flow cytometric analysis; type: functional; conditions: 3D7, po, 96 h, time 4 day
[12] = test system: Plasmodium falciparum; experiment: Antiplasmodial activity against Plasmodium falciparum 3D7 infected in po dosed NSG mouse assessed as blood AUC level require to show 90% reduction in parasitemia administered once daily for 4 consecutive days starting from day 3 post-infection and measured 24 hrs post last dose by flow cytometric analysis; type: functional, organism-based; conditions: time 4.0 day
[13] = Plasmodium falciparum, 3D7, Erythrocyte, 72 h

Compound	EC50 [1, 13]	IC50 [2]	IC50 [3]	intrinsic clearance [4]	Intrinsic clearance in rat liver microsomes (uL/min/mg protein) [5]	microsomal intrinsic clearance [6]	IC50 [7]	solubility kinetic at 0.5 h [8]	logD [9]	EC50 ([1]; rbc)	also measured
Cc1cc(N[C@@H]2CCc3ccc(Cl)cc3C2)n2nc(C(C)(F)F)nc2n1	2800 nM	790 nM	> 100000 nM								
Cc1cc(NC2CCc3cc(C(F)(F)F)c(F)cc3C2)n2nc(C(C)(F)F)nc2n1 (centres undefined)	3300 nM	87 nM	> 100000 nM	< 7 µL/min	< 7 µL/min	< 7 µL/min	820 nM	1.6 µg/mL (≈ 3.73 µM)	4.1		
Cc1cc(NC2Cc3cccc(F)c3C2)n2nc(C(C)(F)F)nc2n1 (centres undefined)	64 nM	52 nM	> 100000 nM	76 µL/min	72 µL/min	11 µL/min	300 nM	12.5 µg/mL (≈ 36 µM)	3.3		
Cc1cc(NC2CCc3cc(F)c(F)cc3C2)n2nc(C(C)(F)F)nc2n1 (stereo in doubt; 18)		2300 nM								> 2500 nM	
Cc1cc(NC2Cc3c(F)ccc(F)c3C2)n2nc(C(C)(F)F)nc2n1	46 nM	65 nM	> 100000 nM	1500 µL/min	1013 µL/min	33 µL/min	150 nM	6.3 µg/mL (≈ 17.2 µM)	3.2		
Cc1cc(NC2CCc3cc(Cl)ccc3C2)n2nc(C(C)(F)F)nc2n1 (stereo in doubt; 8)		1340 nM								420 nM	
Cc1cc(NC2CCc3cc(F)ccc3C2)n2nc(C(C)(F)F)nc2n1 (centres undefined)			> 100000 nM	122 µL/min	39 µL/min	14 µL/min		6.3 µg/mL (≈ 17.4 µM)	3.5		
COc1ccc2c(c1)CC(Nc1cc(C)nc3nc(C(C)(F)F)nn13)CC2 (stereo in doubt; 17)		1000 nM								640 nM	
Cc1cc(NC2CCc3cc(F)c(C(F)(F)F)cc3C2)n2nc(C(C)(F)F)nc2n1 (centres undefined)	97 nM	89 nM	> 100000 nM	17 µL/min	13 µL/min	< 7 µL/min	390 nM	3.1 µg/mL (≈ 7.22 µM)	4		
Cc1cc(NC2CCc3ccccc3C2)n2nc(C(F)(F)F)nc2n1 (centres undefined)	21 nM	170 nM	> 100000 nM								
Cc1cc(NC2CCc3ccc(Cl)cc3C2)n2nc(C(F)(F)F)nc2n1 (stereo in doubt; 25)		1100 nM								1500 nM	
COc1ccc2c(c1)CCC(Nc1cc(C)nc3nc(C(C)(F)F)nn13)C2 (centres undefined)	17 nM	140 nM	> 100000 nM				220 nM				
Cc1cc(NC2Cc3cc(Cl)c(Cl)cc3C2)n2nc(C(C)(F)F)nc2n1	580 nM	140 nM									
Cc1cc(NC2Cc3c(C)ccc(C)c3C2)n2nc(C(C)(F)F)nc2n1	0.39 nM	14 nM	> 100000 nM	1000 µL/min	178 µL/min	168 µL/min	24 nM	6.3 µg/mL (≈ 17.6 µM)	3.8		
Cc1cc(NC2Cc3ccccc3C2)n2nc(C(C)(F)F)nc2n1	36 nM	48 nM	> 100000 nM	1004 µL/min	245 µL/min	24 µL/min		25 µg/mL (≈ 75.9 µM)	3.1		
Cc1cc(NC2CCc3ccc(Br)cc3C2)n2nc(C(C)(F)F)nc2n1 (stereo in doubt; 14)		640 nM								1400 nM	
Cc1cc(NC2Cc3ccc(Cl)cc3C2)n2nc(C(C)(F)F)nc2n1 (centres undefined)	120 nM	85 nM		43 µL/min	54 µL/min	10 µL/min		6.3 µg/mL (≈ 17.3 µM)	3.5		
Cc1cc(NC2CCc3cc(Br)ccc3C2)n2nc(C(C)(F)F)nc2n1 (stereo in doubt; 12)		790 nM		40 µL/min		< 7 µL/min	2100 nM			140 nM	Kinetic_solubility ([8]; buffer, pH 6.5, 0.5 h): 3.1 µg/mL
Cc1cc(NC2CCc3cc(Cl)ccc3C2)n2nc(C(C)(F)F)nc2n1 (stereo in doubt)											AUCED90 [10]: > 23 µM.hr/day
Cc1cc(NC2Cc3ccc(S(=O)(=O)N(C)C)cc3C2)n2nc(C(C)(F)F)nc2n1 (centres undefined)		8000 nM									
Cc1cc(NC2CCc3cc(F)ccc3C2)n2nc(C(F)(F)F)nc2n1 (centres undefined)	66 nM	77 nM					280 nM				
Cc1cc(NC2CCc3ccc(Cl)cc3C2)n2nc(C(F)(F)F)nc2n1 (stereo in doubt; 24)		15 nM		24 µL/min		9 µL/min		1.6 µg/mL (≈ 4.19 µM)	4.1	33 nM	
Cc1cc(NC2Cc3cccc(C(F)(F)F)c3C2)n2nc(C(C)(F)F)nc2n1 (centres undefined)	4.3 nM	66 nM	> 100000 nM	119 µL/min	61 µL/min	30 µL/min	280 nM	6.3 µg/mL (≈ 15.9 µM)	3.7		
Cc1cc(NC2Cc3cc(F)c(F)cc3C2)n2nc(C(F)(F)F)nc2n1	150 nM	120 nM									
CCN(CC)CCCC(C)Nc1ccnc2cc(Cl)ccc12 (centres undefined) [CHLOROQUINE]											ED90 [11]: 4.3 mg/kg; AUCED90 [12]: 3.1 µM.hr/day
COc1ccc2c(c1)CC(Nc1cc(C)nc3nc(C(C)(F)F)nn13)CC2 (stereo in doubt; 16)		21 nM		25 µL/min	19 µL/min	18 µL/min	130 nM	12.5 µg/mL (≈ 33.5 µM)	3.3	25 nM	
Cc1cc(NC2CCc3cc(F)c(F)cc3C2)n2nc(C(C)(F)F)nc2n1 (stereo in doubt; 19)		60 nM		59 µL/min	24 µL/min	11 µL/min	71 nM			22 nM	
Cc1cc(NC2Cc3ccc(S(C)(=O)=O)cc3C2)n2nc(C(C)(F)F)nc2n1 (centres undefined)	6500 nM	4000 nM									
Cc1cc(NC2Cc3ccc(Br)cc3C2)n2nc(C(C)(F)F)nc2n1 (centres undefined)	590 nM	110 nM									
Cc1cc(NC2CCc3ccccc3C2)n2nc(C(C)(F)F)nc2n1 (centres undefined)	2.8 nM	21 nM					35 nM				
